Assay results: patent publication EP0994109A2, “1-(3-(1-Pyrrolidinyl)propyl)-3-ethylcarbodiimide and a solid phase coupling agent” (ELI LILLY AND COMPANY, priority 1995, dated 1997)
Where a name gives a salt, the structure may show the parent alone.

The compounds below were run on neuronal protein extravasation (assay: Protein extravasation in dura after electrical stimulation of the trigeminal ganglion). Conditions: dose that inhibited the extravasation by 50%, approximated from dose-response curve.
Format: in vivo, rats or guinea pigs
Protocol: Harlan Sprague-Dawley rats (225-325 g) or guinea pigs from Charles River Laboratories (225-325 g) were anesthetized with sodium pentobarbital intraperitoneally (65 mg/kg or 45 mg/kg respectively) and placed in a stereotaxic frame (David Kopf Instruments) with the incisor bar set at -3.5 mm for rats or -4.0 mm for guinea pigs. Following a midline sagital scalp incision, two pairs of bilateral holes were drilled through the skull (6 mm posteriorly, 2.0 and 4.0 mm laterally in rats; 4 mm posteriorly and 3.2 and 5.2 mm laterally in guinea pigs, all coordinates referenced to bregma). Pairs of stainless steel stimulating electrodes (Rhodes Medical Systems, Inc.) were lowered through the holes in both hemispheres to a depth of 9 mm (rats) or 10.5 mm (guinea pigs) from dura.
The femoral vein was exposed and a dose of the test compound was injected intravenously (1 mL/kg). Approximately 7 minutes later, a 50 mg/kg dose of Evans Blue, a fluorescent dye, was also injected intravenously. The Evans Blue complexed with proteins in the blood and functioned as a marker for protein extravasation. Exactly 10 minutes post-injection of the test compound, the left trigeminal ganglion was stimulated for 3 minutes at a current intensity of 1.0 mA (5 Hz, 4 msec duration) with a Model 273 potentiostat/ galvanostat (EG&G Princeton Applied Research).
Fifteen minutes following stimulation, the animals were killed and exsanguinated with 20 mL of saline. The top of the skull was removed to facilitate the collection of the dural membranes. The membrane samples were removed from both hemispheres, rinsed with water, and spread flat on microscopic slides. Once dried, the tissues were coverslipped with a 70% glycerol/water solution.
A fluorescence microscope (Zeiss) equipped with a grating monochromator and a spectrophotometer was used to quantify the amount of Evans Blue dye in each sample. An excitation wavelength of approximately 535 nm was utilized and the emission intensity at 600 nm was determined. The microscope was equipped with a motorized stage and also interfaced with a personal computer. This facilitated the computer-controlled movement of the stage with fluorescence measurements at 25 points (500 µm steps) on each dural sample. The mean and standard deviation of the measurements was determined by the computer.
The extravasation induced by the electrical stimulation of the trigeminal ganglion was an ipsilateral effect (i.e. occurs only on the side of the dura in which the trigeminal ganglion was stimulated). This allows the other (unstimulated) half of the dura to be used as a control. The ratio of the amount of extravasation in the dura from the stimulated side compared to the unstimulated side dura was calculated. Saline controls yielded a ratio of approximately 2.0 in rats and 1.8 in guinea pigs. […]
With `CNS(=O)(=O)Cc1ccc2[nH]cc(CCN(C)C)c2c1.O=C(O)CCC(=O)O` [Compound I, 3-[2-(dimethylamino)ethyl]-N-methyl-1H-indole-5-methanesulfonamide butane-1,4-dioate (1:1)] the “i.v. ID50” value was 2.6e-08 mmol/kg.
With `Cn1cc(CCN2CCC(c3c[nH]c4ccc(F)cc34)CC2)cn1` [Compound II, 5-fluoro-3-<1-<2-<1-methyl-1H-pyrazol-4-yl>ethyl>-4-piperidinyl>-1H-indole hydrochloride] the “i.v. ID50” value was 8.6e-10 mmol/kg.
`O=C(O)C(=O)O.Oc1ccc2[nH]cc(C3CCNCC3)c2c1` [Compound III, 5-hydroxy-3-(4-piperidinyl)-1H-indole oxalate] was tested, and the “i.v. ID50” value was 8.9e-09 mmol/kg.
In the case of `CCN(CC)C1CCc2cccc(Cl)c2C1.Cl` (centres unmarked) [Compound IV, 8-chloro-2-diethylamino-1,2,3,4-tetrahydronaphthalene hydrochloride], the “i.v. ID50” value is reported as 1.2e-07 mmol/kg.
With `CN(C)C1CCc2[nH]c3ccc(O)cc3c2C1` (centres unmarked) [Compound V, 6-hydroxy-3-dimethylamino-1,2,3,4-tetrahydrocarbazole] the “i.v. ID50” value was 8.7e-09 mmol/kg.
